Measurements from patent US20160377571A1, “BIOSENSOR” (University of Leeds, priority 2007, published 2016).

Tests used:
[1] = for response of the electrode of the invention to the test compound (depression of capacitance peaks): 0.5 μmol dm^−3 in 0.1M KCl
Description: The HMDE and the electrode of the invention were compared side-by-side in a static cell configuration. All experiments were carried out in 0.1 M potassium chloride solution. Measurements were taken at 75 Hz between −0.4 to −1.15 V with 4.95 mV rms at a scan rate of 5 mV
This Example compares a HMDE electrode with an electrode as produced in accordance with Example 3, both coated with a monolayer film of 1,2-dioleoyl-sn-glycero-3-phosphocholine (DOPC), new layers of which were deposited between consecutive scans. Experiments were performed in 0.1M Kcl. A negative going ‘forward’ potential scan was performed between −0.4 V and −1.15 V, and then followed immediately by a positive going ‘reverse’ scan from −1.15 V to −0.4 V with 4.95 mV rms at a scan rate of 5 mVs^−1.

[2] = AC voltammetry (capacitance-potential scans) of DOPC monolayer on hanging mercury drop electrode (HMDE) with analyte in electrolyte
Description: The HMDE was based on using a capillary with a diameter of 0.1 mm so as to provide a surface area for the mercury drop about the same as the surface area of the mercury in the electrode in accordance with the invention.
Experiments were performed in 0.1M Kcl.

[3] = Pt/Hg electrode, DOPC monolayer, compared with HMDE

sensitivity converted to ppb ([1]; assuming a density for the solution of 1 g per ml) | SMILES | response of the electrode of the invention to the test compound (depression of capacitance peaks) [1, 3] | response of the electrode of the invention to the test compound ([1]; 5 μmol dm^−3, Pt/Hg electrode, DOPC monolayer, compared with HMDE) | response of the HMDE to the test compound ([2]; 5 μmol dm^−3) | response of the HMDE to the test compound ([2]; 0.5 μmol dm^−3 in 0.1M KCl)
– | NC(=O)c1cc[n+](COC[n+]2ccccc2C=NO)cc1 [H16] | far greater response | slightly larger response | large response | –
approximately 18 ppb | CN(C)CCCN1c2ccccc2Sc2ccc(Cl)cc21 [chlorpromazine] | – | – | – | –
– | CC(CN1c2ccccc2Sc2ccccc21)N(C)C (stereo not drawn) [promethazine] | stronger response (greater depression of the peaks) | – | – | show response
